Results reported in patent US10799590B2, “Compositions containing a bitter tastant and at least one sophorolipid, and methods of reducing bitter taste attributed to a bitter tastant in an edible composition” (The United States of America, as Represented by the …, priority 2015, dated 2020).
“Also recorded” adds a separate entry of the source.

Experiments:
T1R3 = experiment: Chorda tympani whole-nerve responses to lingual taste stimuli, T1R3-KO mice; assay type: in vivo; conditions: lingual application (FIG. 6A, 7)
Protocol: (§1) Mouse model for sweet property and bitter-masking assay. Recordings of chorda tympani (CT) whole-nerve responses: All protocols involving animals were approved by the Institutional Animal Care and Use Committees at the Monell Center prior to the experiments. The study was performed with mice from two strains: C57BL/6J inbred strain (B6; Jackson Laboratory, Bar Harbor, Me.) bearing the wild-type Tas1r3 allele was used as the control, and the C57BL/6J-Tas1r3^tm1Rjm “gene-knockout” strain (T1R3-KO) lacking the entire T1R3 coding region and devoid of T1R3 protein ([…]., et al., Science, 301: 850-853 (2003)). Afferent signals from taste cells are relayed to the brain via three major gustatory nerves: the chorda tympani, glossopharyngeal, and greater superficial petrosal. […] Neural responses resulting from chemical stimulations of the tongue were fed into an amplifier (Grass Instruments, West Warwick, R.I.) and monitored on an oscilloscope and an audio monitor. Whole-nerve responses were integrated with a time constant of 1.0 s and recorded using a computer for later analysis using a PowerLab system (PowerLab/sp4; AD Instruments, Colorado Springs, Colo.). […] To analyze nerve responses to each stimulus, the magnitudes of integrated responses at 5, 10, 15, 20, and 25 s after stimulus onset were measured and averaged. […]

[1] = system: chorda tympani nerve of wild-type B6 mice; experiment: Chorda tympani whole-nerve responses to lingual taste stimuli, wild-type B6 mice; assay type: in vivo; conditions: lingual application (FIG. 6B, 7)
Protocol: as §1

In the case of `OC[C@H]1O[C@@H](O[C@@H]2[C@@H](O)[C@H](O)[C@@H](CO)O[C@H]2O)[C@H](O)[C@@H](O)[C@@H]1O` [Sophorose, 2-O-β-D-glucopyranosyl-β-D glucopyranose], the chorda tympani responses (T1R3) was “serious deficit; also recorded: nearly absent” and the chorda tympani responses [1] was “present”.
